In publication PMC12004706, “In vitro inhibition of voltage-dependent sodium currents by the antifungal drug amorolfine” (The Journal of Biological Chemistry, 2025) one finds Ki data, which are given here for 1 compound.

Structures are written as SMILES.

This experiment deals with T1, Nav1.7 (Homo sapiens, UniProt Q15858).
T1 construct: gene SCN9A; human Nav1.7 channels stably transfected in Expi293F cells
In words: automated whole-cell patch clamp (Qube-384); inverse apparent IC50 vs holding potential fit with four-state binding model. It is filed as cell-based.

T1 sequence (Q15858 whole entry): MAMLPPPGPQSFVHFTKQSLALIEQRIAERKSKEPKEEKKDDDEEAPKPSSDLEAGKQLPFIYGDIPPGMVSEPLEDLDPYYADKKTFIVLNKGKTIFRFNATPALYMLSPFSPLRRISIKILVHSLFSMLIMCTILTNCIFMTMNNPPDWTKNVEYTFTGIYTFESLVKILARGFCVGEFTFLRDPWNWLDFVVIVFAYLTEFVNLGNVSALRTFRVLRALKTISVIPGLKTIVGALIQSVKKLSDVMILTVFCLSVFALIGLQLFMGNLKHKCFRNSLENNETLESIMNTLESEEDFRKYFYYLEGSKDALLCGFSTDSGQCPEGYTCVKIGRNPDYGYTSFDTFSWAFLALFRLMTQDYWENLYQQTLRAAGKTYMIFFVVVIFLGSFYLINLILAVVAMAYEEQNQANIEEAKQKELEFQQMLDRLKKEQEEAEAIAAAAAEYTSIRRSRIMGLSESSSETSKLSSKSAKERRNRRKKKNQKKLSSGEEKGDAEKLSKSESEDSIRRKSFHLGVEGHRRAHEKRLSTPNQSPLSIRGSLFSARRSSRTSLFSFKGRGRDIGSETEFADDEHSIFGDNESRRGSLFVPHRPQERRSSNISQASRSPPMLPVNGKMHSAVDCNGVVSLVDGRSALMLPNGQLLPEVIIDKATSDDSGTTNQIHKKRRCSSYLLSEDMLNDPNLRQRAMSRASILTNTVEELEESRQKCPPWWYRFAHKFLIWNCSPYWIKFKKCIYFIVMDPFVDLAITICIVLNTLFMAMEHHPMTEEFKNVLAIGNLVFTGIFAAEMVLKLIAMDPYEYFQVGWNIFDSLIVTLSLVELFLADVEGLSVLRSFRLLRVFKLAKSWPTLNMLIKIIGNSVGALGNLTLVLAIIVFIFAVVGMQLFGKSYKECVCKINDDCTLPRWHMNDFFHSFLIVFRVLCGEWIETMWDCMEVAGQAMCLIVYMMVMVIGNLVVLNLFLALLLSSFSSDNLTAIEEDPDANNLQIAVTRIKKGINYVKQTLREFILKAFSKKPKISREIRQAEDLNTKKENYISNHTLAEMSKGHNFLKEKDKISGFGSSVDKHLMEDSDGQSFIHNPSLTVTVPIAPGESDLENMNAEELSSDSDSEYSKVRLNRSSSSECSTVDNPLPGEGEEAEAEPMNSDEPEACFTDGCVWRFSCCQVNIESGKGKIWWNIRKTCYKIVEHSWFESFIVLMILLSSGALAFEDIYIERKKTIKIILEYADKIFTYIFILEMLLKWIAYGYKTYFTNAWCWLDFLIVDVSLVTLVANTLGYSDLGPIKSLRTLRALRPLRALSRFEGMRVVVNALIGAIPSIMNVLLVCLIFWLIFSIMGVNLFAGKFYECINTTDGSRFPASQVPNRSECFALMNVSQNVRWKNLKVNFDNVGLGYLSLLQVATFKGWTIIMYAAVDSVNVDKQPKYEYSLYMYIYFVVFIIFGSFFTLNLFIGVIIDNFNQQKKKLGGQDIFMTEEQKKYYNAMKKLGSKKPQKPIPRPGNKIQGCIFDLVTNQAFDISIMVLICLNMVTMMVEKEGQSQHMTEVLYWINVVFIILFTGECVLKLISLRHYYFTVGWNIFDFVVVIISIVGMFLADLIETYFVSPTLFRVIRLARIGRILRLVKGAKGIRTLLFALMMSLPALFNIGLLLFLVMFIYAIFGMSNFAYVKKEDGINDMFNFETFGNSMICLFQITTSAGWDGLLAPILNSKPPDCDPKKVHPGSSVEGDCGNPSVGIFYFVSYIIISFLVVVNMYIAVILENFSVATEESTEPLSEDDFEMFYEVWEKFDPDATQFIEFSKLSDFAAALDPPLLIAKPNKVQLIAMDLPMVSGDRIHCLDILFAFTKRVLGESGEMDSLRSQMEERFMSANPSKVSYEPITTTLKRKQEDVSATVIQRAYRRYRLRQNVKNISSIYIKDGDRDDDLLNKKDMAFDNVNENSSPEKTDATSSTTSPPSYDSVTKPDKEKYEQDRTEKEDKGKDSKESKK

Consider `CCC(C)(C)c1ccc(CC(C)CN2C[C@@H](C)O[C@@H](C)C2)cc1` (stereo partly shown) [AMF, amorolfine], for which the Ki worked out at 3.6 µM.
